This is an account of results in US10709706B2, “Nuclear transport modulators and uses thereof” (Karyopharm Therapeutics Inc., priority 2015, dated 2020).

Where only a bound is given, the exact number is not on record here.

Common to all, as to type: cell-based
The test system of one test is MM1S cells. As to the kind of experiment: MTT cell proliferation assay, MM1S cells. The following applies: Homo sapiens, MM1.S, MM1S multiple myeloma cells, approximately 64-72 hours, 1 nM to 30 μM. As for the experimental part:
(§1) The MTT cell proliferation assay was used to study the cytotoxic properties of the compounds. The assay was performed according to the method described by Roche Molecular Biochemicals, with minor modifications. The assay is based on the cleavage of the tetrazolium salt, MTT, in the presence of an electron-coupling reagent. The water-insoluble formazan salt produced must be solubilized in an additional step. Cells grown in a 96-well tissue culture plate were incubated with the MTT solution for approximately 4 hours. After this incubation period, a water-insoluble formazan dye formed. After solubilization, the formazan dye was quantitated using a scanning multi-well spectrophotometer (ELISA reader). […] The cells were seeded at 5,000-10,000 cells in each well of 96-well plate in 100 μL of fresh culture medium and were allowed to attach overnight. The stock solutions of the compounds were diluted in 100 μL cell culture medium to obtain eight concentrations of each test compound, ranging from 1 nM to 30 μM. […] All optical densities were measured at 490 nm using a Vmax Kinetic Microplate Reader (Molecular Devices). In most cases, the assay was performed in duplicate and the results were presented as a mean percent inhibition to the negative control±SE. The following formula was used to calculate the percent of inhibition: Inhibition (%)=(1−(ODo/OD))×100.
(§2) The compounds were tested against Z138, MM1S and 3T3 cells. The Z138 cell line is a mature B-cell acute lymphoblastic leukemia cell line derived from a patient with chronic lymphocytic leukemia. The MM1S cell line was established from the peripheral blood of a human multiple myeloma patient. 3T3 cells are standard fibroblast cells; they were originally isolated from Swiss mouse embryo tissue.

In another test the test system is Z138 cells. Briefly: MTT cell proliferation assay, Z138 cells. The conditions noted are these: Homo sapiens, Z-138, approximately 64-72 hours, 1 nM to 30 μM. The procedure:
as §1, §2
(Formazan colour is commonly taken as a measure of viable cells.)

In the next test the test system is 3T3 cells. Briefly: MTT cell proliferation assay, 3T3 cells. The conditions noted are these: Mus musculus, NIH3T3, 3T3 fibroblast cells, approximately 64-72 hours, 1 nM to 30 μM. The procedure: as §1, §2

A word on the IC50: it is the concentration at which inhibition is half-maximal. Read a low IC50 as inhibition by little substance. In the case of `NC(=O)/C(=C/c1ccnc(-c2cc(C(F)(F)F)cc(C(F)(F)F)c2)n1)c1cncnc1` [Compound 112, (E)-3-(2-(3,5-bis(trifluoromethyl)phenyl)pyrimidin-4-yl)-2-(pyrimidin-5-yl)acrylamide], the IC50 in the test with MM1S cells is 0.1 to 5 µM; in the test with Z138 cells it was 0.1 to 5 µM; in the test on 3T3 cells, more than 30 µM.
`NC(=O)/C(=C/c1ccnc(-c2cc(C(F)(F)F)cc(C(F)(F)F)c2)n1)c1csc2ccccc12` [Compound 123, (E)-2-(benzo[b]thiophen-3-yl)-3-(2-(3,5-bis(trifluoromethyl)phenyl)pyrimidin-4-yl)acrylamide]: the concentration for half-maximal inhibition (IC50) in the test with MM1S cells, with Z138 cells and in the test on 3T3 cells was more than 30 µM in each case.
With `NC(=O)/C(Br)=C/c1cncc(-c2cc(C(F)(F)F)cc(C(F)(F)F)c2)n1` [Compound 103, (Z)-3-(6-(3,5-bis(trifluoromethyl)phenyl)pyrazin-2-yl)-2-bromoacrylamide], the IC50 in the test with MM1S cells is 0.1 to 5 µM; in the test on Z138 cells, 0.1 to 5 µM; in the test on 3T3 cells, more than 30 µM.
In the case of `CN1CCN(S(=O)(=O)c2cccc(/C(=C\c3ccnc(-c4cc(C(F)(F)F)cc(C(F)(F)F)c4)n3)C(N)=O)c2)CC1` [Compound 146, (E)-3-(2-(3,5-bis(trifluoromethyl)phenyl)pyrimidin-4-yl)-2-(3-((4-methylpiperazin-1-yl)sulfonyl)phenyl)acrylamide], the IC50 in the test with MM1S cells, in the test with Z138 cells and with 3T3 cells was more than 30 µM in each case.
Turning to `NC(=O)/C(=C/c1ccnc(-c2cc(C(F)(F)F)cc(C(F)(F)F)c2)n1)c1ccc(S(=O)(=O)N2CCC(F)(F)C2)cc1` [Compound 157, (E)-3-(2-(3,5-bis(trifluoromethyl)phenyl)pyrimidin-4-yl)-2-(4-((3,3-difluoropyrrolidin-1-yl)sulfonyl)phenyl)acrylamide], the half-maximal inhibitory concentration (IC50) is 0.1 to 5 µM in the test with MM1S cells, 0.1 to 5 µM in the test on Z138 cells and more than 30 µM in the test on 3T3 cells.
As to `O=C(O)/C(=C/c1cncc(-c2cc(C(F)(F)F)cc(C(F)(F)F)c2)n1)c1cncnc1` [Compound 117, (E)-3-(6-(3,5-bis(trifluoromethyl)phenyl)pyrazin-2-yl)-2-(pyrimidin-5-yl)acrylic acid], the 50% inhibitory concentration (IC50) in the test on MM1S cells, with Z138 cells and with 3T3 cells was more than 30 µM throughout.
For the compound `NC(=O)/C(=C/c1ccnc(-c2cc(C(F)(F)F)cc(C(F)(F)F)c2)n1)c1ccc(S(=O)(=O)NC2CC2)cc1` [Compound 128, (E)-3-(2-(3,5-bis(trifluoromethyl)phenyl)pyrimidin-4-yl)-2-(4-(N-cyclopropylsulfamoyl)phenyl)acrylamide], the IC50 with MM1S cells was 5 to 30 µM; in the test on Z138 cells, 5 to 30 µM; in the test on 3T3 cells, more than 30 µM.
Take `O=C(O)/C(=C/c1ccnc(-c2cc(C(F)(F)F)cc(C(F)(F)F)c2)n1)c1cncnc1` [Compound 111, (E)-3-(2-(3,5-bis(trifluoromethyl)phenyl)pyrimidin-4-yl)-2-(pyrimidin-5-yl)acrylic acid]: the IC50 with MM1S cells is 5 to 30 µM; with Z138 cells, more than 30 µM; with 3T3 cells it was more than 30 µM.
For the compound `NC(=O)/C(=C/c1ccnc(-c2cc(C(F)(F)F)cc(C(F)(F)F)c2)n1)c1cccc(S(=O)(=O)N2CCC2)c1` [Compound 166, (E)-2-(3-(azetidin-1-ylsulfonyl)phenyl)-3-(2-(3,5-bis(trifluoromethyl)phenyl)pyrimidin-4-yl)acrylamide], the IC50 in the test on MM1S cells, in the test with Z138 cells and with 3T3 cells was more than 30 µM in each case.
In the case of `NC(=O)/C(=C/c1ccnc(-c2cc(C(F)(F)F)cc(C(F)(F)F)c2)n1)c1ccncc1` [Compound 148, (E)-3-(2-(3,5-bis(trifluoromethyl)phenyl)pyrimidin-4-yl)-2-(pyridin-4-yl)acrylamide], the IC50 with MM1S cells was 0.1 to 5 µM; with Z138 cells, 0.1 to 5 µM; in the test on 3T3 cells, more than 30 µM.
Take `NC(=O)/C(=C/c1ccnc(-c2cc(C(F)(F)F)cc(C(F)(F)F)c2)n1)c1cccc(S(=O)(=O)N2CCCCC2)c1` [Compound 167, (E)-3-(2-(3,5-bis(trifluoromethyl)phenyl)pyrimidin-4-yl)-2-(3-(piperidin-1-ylsulfonyl)phenyl)acrylamide]: the 50% inhibitory concentration (IC50) in the test with MM1S cells, with Z138 cells and with 3T3 cells was more than 30 µM in each case.
Take `NC(=O)/C(=C/c1ccnc(-c2cc(C(F)(F)F)cc(C(F)(F)F)c2)n1)c1cccc(S(=O)(=O)N2CCC(F)CC2)c1` [Compound 131, (E)-3-(2-(3,5-bis(trifluoromethyl)phenyl)pyrimidin-4-yl)-2-(3-((4-fluoropiperidin-1-yl)sulfonyl)phenyl)acrylamide]: the IC50 with MM1S cells, in the test on Z138 cells and in the test on 3T3 cells was more than 30 µM each time.
Take `CS(=O)(=O)c1ccc(/C(=C\c2ccnc(-c3cc(C(F)(F)F)cc(C(F)(F)F)c3)n2)C(N)=O)cc1` [Compound 127, (E)-3-(2-(3,5-bis(trifluoromethyl)phenyl)pyrimidin-4-yl)-2-(4-(methylsulfonyl)phenyl)acrylamide]: the IC50 with MM1S cells, in the test with Z138 cells and with 3T3 cells was more than 30 µM each time.
Regarding `O=C(O)/C(=C/c1nccc(-c2cc(C(F)(F)F)cc(C(F)(F)F)c2)n1)c1cncnc1` [Compound 109, (E)-3-(4-(3,5-bis(trifluoromethyl)phenyl)pyrimidin-2-yl)-2-(pyrimidin-5-yl)acrylic acid], the IC50 in the test with MM1S cells, in the test with Z138 cells and with 3T3 cells was more than 30 µM in each case.
With `CCOC(=O)/C=C/c1ccnc(-c2cc(C(F)(F)F)cc(C(F)(F)F)c2)n1` [Compound 105, ethyl (E)-3-(2-(3,5-bis(trifluoromethyl)phenyl)pyrimidin-4-yl)acrylate], the IC50 with MM1S cells, with Z138 cells and with 3T3 cells was more than 30 µM in each case.
For `NC(=O)/C(=C/c1ccnc(-c2cc(C(F)(F)F)cc(C(F)(F)F)c2)n1)c1cccc(Cl)c1Cl` [Compound 141, (E)-3-(2-(3,5-bis(trifluoromethyl)phenyl)pyrimidin-4-yl)-2-(2,3-dichlorophenyl)acrylamide], the IC50 in the test with MM1S cells, in the test on Z138 cells and with 3T3 cells was more than 30 µM throughout.
With `NC(=O)/C(=C/c1ccnc(-c2cc(C(F)(F)F)cc(C(F)(F)F)c2)n1)c1cncc(F)c1` [Compound 121, (E)-3-(2-(3,5-bis(trifluoromethyl)phenyl)pyrimidin-4-yl)-2-(5-fluoropyridin-3-yl)acrylamide], the IC50 is 0.1 to 5 µM in the test with MM1S cells, more than 30 µM in the test on Z138 cells and more than 30 µM in the test on 3T3 cells.
Turning to `N#Cc1ncc(/C(=C\c2ccnc(-c3cc(C(F)(F)F)cc(C(F)(F)F)c3)n2)C(N)=O)cn1` [Compound 125, (E)-3-(2-(3,5-bis(trifluoromethyl)phenyl)pyrimidin-4-yl)-2-(2-cyanopyrimidin-5-yl)acrylamide], the IC50 in the test on MM1S cells was less than 0.1 µM; in the test on Z138 cells it was less than 0.1 µM; in the test with 3T3 cells, more than 30 µM.
Take `NC(=O)/C(=C/c1ccnc(-c2cc(C(F)(F)F)cc(C(F)(F)F)c2)n1)c1ccc(S(=O)(=O)N2CCCC2)cc1` [Compound 155, (E)-3-(2-(3,5-bis(trifluoromethyl)phenyl)pyrimidin-4-yl)-2-(4-(pyrrolidin-1-ylsulfonyl)phenyl)acrylamide]: the IC50 with MM1S cells was 5 to 30 µM; in the test with Z138 cells, more than 30 µM; in the test on 3T3 cells, more than 30 µM.
As to `COC(=O)/C(Br)=C\c1nccc(-c2cc(C(F)(F)F)cc(C(F)(F)F)c2)n1` [Compound 108, methyl (E)-3-(4-(3,5-bis(trifluoromethyl)phenyl)pyrimidin-2-yl)-2-bromoacrylate], the IC50 was 5 to 30 µM in the test on MM1S cells, 5 to 30 µM in the test on Z138 cells and more than 30 µM in the test with 3T3 cells.
Take `NC(=O)/C(=C/c1ccnc(-c2cc(C(F)(F)F)cc(C(F)(F)F)c2)n1)c1ccc(S(=O)(=O)N2CCC(F)(F)CC2)cc1` [Compound 159, (E)-3-(2-(3,5-bis(trifluoromethyl)phenyl)pyrimidin-4-yl)-2-(4-((4,4-difluoropiperidin-1-yl)sulfonyl)phenyl)acrylamide]: the results for the concentration for half-maximal inhibition (IC50) with MM1S cells, in the test on Z138 cells and with 3T3 cells were 5 to 30 µM, 0.1 to 5 µM and more than 30 µM, respectively.
